In PubChem BioAssay (NCI) one finds GI50 and TGI data, which are given here for 15 molecules.

Values joined by “and” are separate entries in the source; they are usually repeats but may differ in a detail not shown here. Identical values can stand only once.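 Five concentrations, 48 hours, 96-well plates. GI50 = concentration required for 50% inhibition of growth. At the TGI there is no net growth.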

The subject of the first assay is A549 NSCLC. Nature of the assay: NCI tumour cell line growth inhibition, 48 h.
As for `COc1cccc(/C=C/C(=O)c2cc3c(N)c(C(=O)Nc4ccccc4C)sc3nc2C)c1`, the GI50 is 1.53 µM and the TGI came to 6.29 µM.

A further assay has as its system SK-MEL-28 melanoma. The assay is described as follows: NCI tumour cell line growth inhibition, 48 h.
As to `COc1ccc(-c2nn(-c3cccc(Cl)c3)cc2C2CC(c3ccccc3)=NN2C(C)=O)cc1` (stereo not given), the GI50 is 6.16 µM and the TGI was more than 100 µM.

With `CCn1c(-c2nonc2N)nc2c(C#CCN)ncc(OCCCN)c21`, the GI50 is more than 25 µM and the TGI was more than 25 µM.

Turning to `CN1CCN(Cc2ccc(C(=O)Nc3cncc(C#Cc4cnc(N)c5ccccc45)c3)cc2C(F)(F)F)CC1`, the GI50 is 1.75 µM and the TGI worked out at 3.22 µM.

`N#CC(=C1SCS1)[N+](=O)[O-]`: the GI50 was 3.59 µM and the TGI was 15.1 µM.

On to `CC(C)(C)OC(=O)n1cc(CNC(=S)Nc2ccccc2)c2ccccc21`, for which the GI50 is 27.4 µM and the TGI was 95.3 µM.

With `O=C(NNc1nc2c(F)cccc2n2cccc12)c1cnccn1`, the GI50 was 0.65 µM and the TGI is 15.7 µM.

On to `CN=C(N)N/N=C(\c1ccccc1)c1ccc(Br)cc1`, for which the GI50 was 0.844 µM and the TGI worked out at 5.38 µM.

As to `O=C(c1ccc2ccccc2c1)c1c(C(F)(F)F)n([O-])c2cc(Cl)c(Cl)cc2[n+]1=O`, the GI50 is 1.74 µM and the TGI was found to be 3.57 µM.

For the molecule `O=C(CCN1CCN(c2cnc3ccccc3n2)CC1)c1csc2ccccc12`, the GI50 was 20 µM and the TGI turned out to be 42.7 µM.

As for `CCc1c2c(nc3cc4c(cc13)OCO4)-c1cc3c(c(=O)n1C2)COC(=O)[C@]3(O)CC`, the GI50 is 0.764 µM and 1.14 µM; the TGI is more than 100 µM.

Consider `COc1ccc(/C=C/C=C(/C#N)C(N)=S)cc1`, for which the GI50 is 23.8 µM and the TGI was 65.7 µM.

Take `COc1ccc(-c2cc(-c3cc(Cl)ccc3Cl)nc3[nH]c(-c4cc(F)c(Cl)cc4Cl)cc(=O)c23)cc1`: the GI50 is more than 100 µM and the TGI was more than 100 µM.

For the molecule `COC(=O)C1OC(O[C@H]2CCC3(C)C(CCC4(C)C3CC=C3C5CC(C)(C)CCC5(C(=O)O)CC[C@]34C)C2(C)C)C(O)C(OC2OC(CO)C(O)C(O)C2O)C1O` (stereo not given in full), the GI50 is 10.2 µM and the TGI amounted to 24.1 µM.

Another assay concerns SF-268 CNS. The assay is described as follows: NCI tumour cell line growth inhibition, 48 h.
For `COc1ccc(-c2nn(-c3cccc(Cl)c3)cc2C2CC(c3ccccc3)=NN2C(C)=O)cc1` (stereo not given), the GI50 was 3.13 µM and the TGI came to 14.2 µM.

Regarding `CCn1c(-c2nonc2N)nc2c(C#CCN)ncc(OCCCN)c21`, the GI50 was more than 25 µM and the TGI is more than 25 µM.

For `CN1CCN(Cc2ccc(C(=O)Nc3cncc(C#Cc4cnc(N)c5ccccc45)c3)cc2C(F)(F)F)CC1`, the GI50 was 4.42 µM and the TGI turned out to be 17.2 µM.

Consider `N#CC(=C1SCS1)[N+](=O)[O-]`, for which the GI50 is 3.64 µM and the TGI was determined as 20.1 µM.

Turning to `CC(C)(C)OC(=O)n1cc(CNC(=S)Nc2ccccc2)c2ccccc21`, the GI50 is 11.4 µM and the TGI turned out to be 33.1 µM.

`O=C(NNc1nc2c(F)cccc2n2cccc12)c1cnccn1`: the GI50 was 0.484 µM and the TGI is more than 67.7 µM.

On to `CN=C(N)N/N=C(\c1ccccc1)c1ccc(Br)cc1`, for which the GI50 was 0.685 µM and the TGI worked out at 11.8 µM.

`O=C(c1ccc2ccccc2c1)c1c(C(F)(F)F)n([O-])c2cc(Cl)c(Cl)cc2[n+]1=O`: the GI50 was 1.85 µM and the TGI is 3.96 µM.

Take `O=C1/C(=C/c2ccc(F)cc2)CCOc2ccc([N+](=O)[O-])cc21`: the GI50 was 22.3 µM and the TGI stood at 53.2 µM.

As for `O=C(CCN1CCN(c2cnc3ccccc3n2)CC1)c1csc2ccccc12`, the GI50 is more than 100 µM and the TGI is more than 100 µM.

Regarding `CCc1c2c(nc3cc4c(cc13)OCO4)-c1cc3c(c(=O)n1C2)COC(=O)[C@]3(O)CC`, the GI50 is 0.00907 µM and the TGI amounted to 0.622 µM.

For the molecule `COc1ccc(/C=C/C=C(/C#N)C(N)=S)cc1`, the GI50 is 28 µM and the TGI was more than 100 µM.

`COc1ccc(-c2cc(-c3cc(Cl)ccc3Cl)nc3[nH]c(-c4cc(F)c(Cl)cc4Cl)cc(=O)c23)cc1`: the GI50 is more than 100 µM and the TGI is more than 100 µM.

Regarding `COC(=O)C1OC(O[C@H]2CCC3(C)C(CCC4(C)C3CC=C3C5CC(C)(C)CCC5(C(=O)O)CC[C@]34C)C2(C)C)C(O)C(OC2OC(CO)C(O)C(O)C2O)C1O` (stereo not given in full), the GI50 was 7.56 µM and the TGI turned out to be 17.1 µM.

For `COc1cccc(/C=C/C(=O)c2cc3c(N)c(C(=O)Nc4ccccc4C)sc3nc2C)c1`, the GI50 is 1.78 µM and the TGI stood at 7.66 µM.

Another assay deals with TK-10 renal. Nature of the assay: NCI tumour cell line growth inhibition, 48 h.
As for `COc1ccc(-c2nn(-c3cccc(Cl)c3)cc2C2CC(c3ccccc3)=NN2C(C)=O)cc1` (stereo not given), the GI50 was 5 µM and the TGI turned out to be 21.6 µM.

Turning to `CCn1c(-c2nonc2N)nc2c(C#CCN)ncc(OCCCN)c21`, the GI50 was more than 25 µM and the TGI is more than 25 µM.

For the molecule `CN1CCN(Cc2ccc(C(=O)Nc3cncc(C#Cc4cnc(N)c5ccccc45)c3)cc2C(F)(F)F)CC1`, the GI50 was 1.99 µM and the TGI was found to be 3.74 µM.

As to `N#CC(=C1SCS1)[N+](=O)[O-]`, the GI50 is 3.68 µM and the TGI was 13.4 µM.

Take `CC(C)(C)OC(=O)n1cc(CNC(=S)Nc2ccccc2)c2ccccc21`: the GI50 is 14.6 µM and the TGI was 53.9 µM.

For `O=C(NNc1nc2c(F)cccc2n2cccc12)c1cnccn1`, the GI50 was 5.05 µM and the TGI amounted to 60.9 µM.

With `CN=C(N)N/N=C(\c1ccccc1)c1ccc(Br)cc1`, the GI50 was 0.709 µM and the TGI was determined as 8.47 µM.

As for `O=C(c1ccc2ccccc2c1)c1c(C(F)(F)F)n([O-])c2cc(Cl)c(Cl)cc2[n+]1=O`, the GI50 was 1.77 µM and the TGI came to 3.15 µM.

Take `O=C1/C(=C/c2ccc(F)cc2)CCOc2ccc([N+](=O)[O-])cc21`: the GI50 is 3.88 µM and the TGI came out at 16.1 µM.

Regarding `O=C(CCN1CCN(c2cnc3ccccc3n2)CC1)c1csc2ccccc12`, the GI50 was 19.5 µM and the TGI came to 42.6 µM.

Turning to `CCc1c2c(nc3cc4c(cc13)OCO4)-c1cc3c(c(=O)n1C2)COC(=O)[C@]3(O)CC`, the GI50 is 0.294 µM and 1.91 µM.

`COc1ccc(/C=C/C=C(/C#N)C(N)=S)cc1`: the GI50 is 37.6 µM and the TGI was more than 100 µM.

Turning to `COC(=O)C1OC(O[C@H]2CCC3(C)C(CCC4(C)C3CC=C3C5CC(C)(C)CCC5(C(=O)O)CC[C@]34C)C2(C)C)C(O)C(OC2OC(CO)C(O)C(O)C2O)C1O` (stereo not given in full), the GI50 is 7.22 µM and the TGI amounted to 14.2 µM.

On to `COc1cccc(/C=C/C(=O)c2cc3c(N)c(C(=O)Nc4ccccc4C)sc3nc2C)c1`, for which the GI50 is 1.55 µM and the TGI turned out to be 6.21 µM.

The next assay has as its system SK-OV-3 ovarian. The assay is described as follows: NCI tumour cell line growth inhibition, 48 h.
`COc1ccc(-c2nn(-c3cccc(Cl)c3)cc2C2CC(c3ccccc3)=NN2C(C)=O)cc1` (stereo not given): the GI50 was 6.85 µM and the TGI stood at 43.2 µM.

As for `CCn1c(-c2nonc2N)nc2c(C#CCN)ncc(OCCCN)c21`, the GI50 is more than 25 µM and the TGI is more than 25 µM.

For the molecule `CN1CCN(Cc2ccc(C(=O)Nc3cncc(C#Cc4cnc(N)c5ccccc45)c3)cc2C(F)(F)F)CC1`, the GI50 is 10.8 µM and the TGI was found to be 22.9 µM.

In the case of `N#CC(=C1SCS1)[N+](=O)[O-]`, the GI50 was 5.35 µM and the TGI is 43.3 µM.

Regarding `CC(C)(C)OC(=O)n1cc(CNC(=S)Nc2ccccc2)c2ccccc21`, the GI50 was 26.4 µM and the TGI amounted to 90.1 µM.

For `O=C(NNc1nc2c(F)cccc2n2cccc12)c1cnccn1`, the GI50 is 0.527 µM and the TGI came out at 27.8 µM.

As to `CN=C(N)N/N=C(\c1ccccc1)c1ccc(Br)cc1`, the GI50 is 0.462 µM and the TGI worked out at 12.3 µM.

Regarding `O=C(c1ccc2ccccc2c1)c1c(C(F)(F)F)n([O-])c2cc(Cl)c(Cl)cc2[n+]1=O`, the GI50 was 1.58 µM and the TGI was 3.15 µM.

For `O=C1/C(=C/c2ccc(F)cc2)CCOc2ccc([N+](=O)[O-])cc21`, the GI50 was 17 µM and the TGI was 32.6 µM.

In the case of `O=C(CCN1CCN(c2cnc3ccccc3n2)CC1)c1csc2ccccc12`, the GI50 was more than 100 µM and the TGI is more than 100 µM.

For the molecule `COc1ccc(/C=C/C=C(/C#N)C(N)=S)cc1`, the GI50 is 96.1 µM and the TGI is more than 100 µM.

Regarding `COc1ccc(-c2cc(-c3cc(Cl)ccc3Cl)nc3[nH]c(-c4cc(F)c(Cl)cc4Cl)cc(=O)c23)cc1`, the GI50 is 84.6 µM and the TGI is more than 100 µM.

Turning to `COc1cccc(/C=C/C(=O)c2cc3c(N)c(C(=O)Nc4ccccc4C)sc3nc2C)c1`, the GI50 is 5.03 µM and the TGI is 38.8 µM.

Another assay deals with MCF7 breast. The assay is described as follows: NCI tumour cell line growth inhibition, 48 h.
Turning to `COc1ccc(-c2nn(-c3cccc(Cl)c3)cc2C2CC(c3ccccc3)=NN2C(C)=O)cc1` (stereo not given), the GI50 is more than 100 µM and the TGI is more than 100 µM.

As for `CCn1c(-c2nonc2N)nc2c(C#CCN)ncc(OCCCN)c21`, the GI50 is more than 25 µM and the TGI is more than 25 µM.

As for `CN1CCN(Cc2ccc(C(=O)Nc3cncc(C#Cc4cnc(N)c5ccccc45)c3)cc2C(F)(F)F)CC1`, the GI50 was 1.67 µM and the TGI was 3.39 µM.

As to `N#CC(=C1SCS1)[N+](=O)[O-]`, the GI50 is 1.31 µM and the TGI was determined as 17.8 µM.

Turning to `CC(C)(C)OC(=O)n1cc(CNC(=S)Nc2ccccc2)c2ccccc21`, the GI50 is 9.02 µM and the TGI turned out to be 48 µM.

For the molecule `O=C(NNc1nc2c(F)cccc2n2cccc12)c1cnccn1`, the GI50 is 0.412 µM and the TGI was found to be 29.6 µM.

As to `CN=C(N)N/N=C(\c1ccccc1)c1ccc(Br)cc1`, the GI50 is 0.268 µM and the TGI was found to be 8.33 µM.

In the case of `O=C(c1ccc2ccccc2c1)c1c(C(F)(F)F)n([O-])c2cc(Cl)c(Cl)cc2[n+]1=O`, the GI50 was 1.68 µM and the TGI was determined as 3.41 µM.

Take `O=C1/C(=C/c2ccc(F)cc2)CCOc2ccc([N+](=O)[O-])cc21`: the GI50 was 2.91 µM and the TGI is 9.29 µM.

On to `O=C(CCN1CCN(c2cnc3ccccc3n2)CC1)c1csc2ccccc12`, for which the GI50 is 18.1 µM and the TGI came out at 48.6 µM.

`CCc1c2c(nc3cc4c(cc13)OCO4)-c1cc3c(c(=O)n1C2)COC(=O)[C@]3(O)CC`: the GI50 was less than 0.001 µM.

Regarding `COc1ccc(/C=C/C=C(/C#N)C(N)=S)cc1`, the GI50 was 29.5 µM and the TGI is more than 100 µM.

`COc1ccc(-c2cc(-c3cc(Cl)ccc3Cl)nc3[nH]c(-c4cc(F)c(Cl)cc4Cl)cc(=O)c23)cc1`: the GI50 is 60.9 µM and the TGI was more than 100 µM.

In the case of `COC(=O)C1OC(O[C@H]2CCC3(C)C(CCC4(C)C3CC=C3C5CC(C)(C)CCC5(C(=O)O)CC[C@]34C)C2(C)C)C(O)C(OC2OC(CO)C(O)C(O)C2O)C1O` (stereo not given in full), the GI50 is 9.92 µM and the TGI is 26.4 µM.

Take `COc1cccc(/C=C/C(=O)c2cc3c(N)c(C(=O)Nc4ccccc4C)sc3nc2C)c1`: the GI50 was 1.29 µM and the TGI was found to be 6.1 µM.
